Tests used:
[1] = Inhibition of p70S6K (unknown origin); set-up: species or system Homo sapiens
[2] = molecular target: Serine/threonine-protein kinase AKT (Homo sapiens, UniProt P31751+Q9Y243+P31749); assay: Inhibition of Akt (unknown origin); format: protein assay
[3] = Inhibition of Akt/p70S6K in human MDA-MB-436 cells assessed as inhibition of S6 phosphorylation; format: cell-based
[4] = molecular target: Voltage-gated inwardly rectifying potassium channel KCNH2 (Homo sapiens, UniProt Q12809); assay: Inhibition of human ERG by patch clamp assay
Sequence of Voltage-gated inwardly rectifying potassium channel KCNH2 (Q12809 whole entry): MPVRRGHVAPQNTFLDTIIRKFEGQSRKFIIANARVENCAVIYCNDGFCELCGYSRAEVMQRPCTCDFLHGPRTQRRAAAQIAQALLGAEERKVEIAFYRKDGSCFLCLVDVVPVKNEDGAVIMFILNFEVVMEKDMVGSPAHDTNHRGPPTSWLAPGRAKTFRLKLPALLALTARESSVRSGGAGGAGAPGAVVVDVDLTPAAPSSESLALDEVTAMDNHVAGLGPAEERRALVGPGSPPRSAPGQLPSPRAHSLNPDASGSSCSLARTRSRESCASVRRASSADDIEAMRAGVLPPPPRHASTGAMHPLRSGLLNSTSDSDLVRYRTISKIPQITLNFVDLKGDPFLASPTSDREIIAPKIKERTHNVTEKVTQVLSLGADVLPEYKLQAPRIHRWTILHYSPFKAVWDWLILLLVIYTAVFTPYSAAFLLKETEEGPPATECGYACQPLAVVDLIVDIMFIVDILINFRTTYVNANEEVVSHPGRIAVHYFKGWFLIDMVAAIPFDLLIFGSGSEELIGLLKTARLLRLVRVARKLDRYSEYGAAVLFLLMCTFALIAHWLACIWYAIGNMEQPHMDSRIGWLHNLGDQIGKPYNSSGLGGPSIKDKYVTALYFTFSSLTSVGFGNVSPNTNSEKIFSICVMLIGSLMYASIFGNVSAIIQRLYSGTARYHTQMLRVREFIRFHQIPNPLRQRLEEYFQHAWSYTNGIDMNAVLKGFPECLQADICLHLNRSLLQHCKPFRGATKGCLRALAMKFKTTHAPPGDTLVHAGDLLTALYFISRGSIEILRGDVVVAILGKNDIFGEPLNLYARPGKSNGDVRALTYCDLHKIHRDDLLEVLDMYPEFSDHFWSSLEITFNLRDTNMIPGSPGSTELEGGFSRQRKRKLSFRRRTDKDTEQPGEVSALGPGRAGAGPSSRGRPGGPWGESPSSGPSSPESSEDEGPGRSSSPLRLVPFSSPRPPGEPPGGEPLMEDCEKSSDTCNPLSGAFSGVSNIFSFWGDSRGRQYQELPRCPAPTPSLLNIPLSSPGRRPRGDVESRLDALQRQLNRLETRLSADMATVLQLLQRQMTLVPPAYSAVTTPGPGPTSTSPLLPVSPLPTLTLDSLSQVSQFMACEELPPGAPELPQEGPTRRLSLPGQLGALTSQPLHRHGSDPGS

SMILES | IC50 [1] | IC50 [2] | IC50 [3] | IC50 [4]
CN(C)CC(c1ccc(C(F)(F)F)cc1)N1CCN(c2ncnc(N)c2-c2ccc(F)cc2)CC1 (stereo not drawn) | 4.9 nM | > 1000 nM | 1200 nM | 
Nc1ncnc(N2CCC(c3nc(-c4ccc(F)c(C(F)(F)F)c4)cn3CCN3CCCCC3)CC2)c1-c1ccc(F)cc1 | 18 nM | 350 nM |  | 
C=Cc1c(N)ncnc1N1CCC(c2nc(-c3ccc(F)c(C(F)(F)F)c3)cn2CCN2CCC2)CC1 | 2.6 nM | 4.2 nM |  | 930 nM
NCC(c1ccc(F)cc1)N1CCN(c2ncnc(N)c2-c2ccc(F)cc2)CC1 (stereo not drawn) | 4.4 nM | > 1000 nM | 1900 nM | 
CC(C)c1c(N)ncnc1N1CCC(c2nc(-c3ccc(F)c(C(F)(F)F)c3)cn2CCN2CCC2)CC1 | 3.5 nM | 6.6 nM | 78000 nM | 1800 nM
Nc1ncnc(N2CCC(c3nc(-c4ccc(F)c(C(F)(F)F)c4)cn3CCN3CCC3)CC2)c1Cl | 0.6 nM | 1 nM | 64000 nM | 1900 nM
NCC(c1ccc(C(F)(F)F)cc1)N1CCN(c2ncnc(N)c2-c2ccc(F)cc2)CC1 (stereo not drawn) | 2.2 nM | 350 nM | 400 nM | 
NCC(c1ccccc1)N1CCN(c2ncnc(N)c2-c2ccc(F)cc2)CC1 (stereo not drawn) | 6.3 nM | > 1000 nM | 2600 nM | 

More lines, main results first:

IC50 [1] | IC50 [2] | IC50 [3] | SMILES | IC50 [4]
3.7 nM | 12 nM |  | CCc1c(N)ncnc1N1CCC(c2nc(-c3ccc(F)c(C(F)(F)F)c3)cn2CCN(C)C)CC1 | 
1.3 nM | 260 nM | 300 nM | Cn1cc(-c2ccc(F)c(C(F)(F)F)c2)nc1C1CCN(c2ncnc(N)c2C#N)CC1 | 
2.3 nM | 880 nM | 700 nM | Cn1cc(-c2ccc(F)c(C(F)(F)F)c2)nc1C1CCN(c2ncnc(N)c2-c2cncnc2)CC1 | 
8.2 nM | 140 nM |  | Nc1ncnc(N2CCC(c3nc(-c4ccc(F)c(C(F)(F)F)c4)cn3CCN3CCCC3)CC2)c1-c1ccc(F)cc1 | 1500 nM
2.4 nM | 23 nM |  | Nc1ncnc(N2CCC(c3nc(-c4ccc(F)c(C(F)(F)F)c4)cn3CCN3CCC3)CC2)c1-c1ccc(F)cc1 | 1300 nM
7.3 nM | 230 nM |  | CN(C)CCn1cc(-c2ccc(F)c(C(F)(F)F)c2)nc1C1CCN(c2ncnc(N)c2-c2ccc(F)cc2)CC1 | 1200 nM
2.1 nM | 850 nM | 600 nM | Cc1ncc(-c2c(N)ncnc2N2CCC(c3nc(-c4ccc(F)c(C(F)(F)F)c4)cn3C)CC2)s1 | 
3 nM | > 1000 nM | 800 nM | Cn1cc(-c2ccc(F)c(C(F)(F)F)c2)nc1C1CCN(c2ncnc(N)c2-c2ccccc2F)CC1 | 

From ChEMBL document CHEMBL4823315 (Bioorg Med Chem Lett, 2021)
